Patent US20250146039A1, “Terpene Glycoside Derivatives and Uses Thereof” (Firmenich SA, priority 2018, published 2025)

Test system: panel of taste experts
Assay: taste evaluation of purified compounds in a water base
Type: in vivo
Settings: 500 ppm in a water base
Experimental: A composition comprising the at least one glucosylated terpene glucosides was generated according to the methods described in the preceding examples. The compounds were dissolved in water (alternatively, the compounds could also be combined into a 2% (w/w) or 4% (w/w) sucrose solution or 7% (w/w) inverted sugar plus 0.15% citric acid (w/w) solution), wherein the final concentration of the composition in solution may range from 1 to 1000 ppm. A panel of taste experts evaluated the solutions.

Row | Structure (SMILES) | taste perceived | times sweeter than sucrose
1 | C=C1C[C@@]23CC[C@H]4[C@@](C)(CCC[C@@]4(C)C(=O)O[C@@H]4OC(CO[C@H]5OC(CO)[C@@H](O)C(O)C5O)[C@@H](O)C(O)C4O)[C@@H]2CC[C@]1(O[C@@H]1OC(CO)[C@@H](O)C(O[C@@H]2OC(CO)[C@@H](O)C(O)C2O)C1O[C@@H]1OC(CO)[C@@H](O)C(O)C1O)C3 (stereo partly drawn) [compound of formula III, Mono α-1,6-glucosylated Rebaudioside A] | strong sweet taste | 200-300 times
2 | C=C1C[C@@]23CC[C@H]4[C@@](C)(CCC[C@@]4(C)C(=O)O[C@@H]4OC(CO)[C@@H](O)C(O)C4O)[C@@H]2CC[C@]1(O[C@@H]1OC(CO)[C@@H](O)C(O[C@@H]2OC(CO[C@H]4OC(CO)[C@@H](O)C(O)C4O)[C@@H](O)C(O)C2O)C1O[C@@H]1OC(CO)[C@@H](O)C(O)C1O)C3 (stereo partly shown) [compound of formula VIII] | strong sweet taste | 200-300 times
